Laboratory results: paper PMC9885860 (Pharmacological research, 2021)
Values joined by “and” are separate entries in the source; they are usually repeats but may differ in a detail not shown here. Equal entries are not always repeated. “Also recorded” adds a separate entry of the source. Structures can show the parent of a compound that is named as a salt. Where two headings read alike, the source gives them in different places.

Assays:
α2AR-D4.7R [1] = biological target: α2AR-D4.7R (Homo sapiens, UniProt P08913+P21917); assay: CODA-RET Gαi1 activation, α2AR-D4.7R heteromer; format: cell-based; conditions: for Emax: Gαi1, Table 2
α2AR-α2AR = biological target: T1, α2AR-α2AR (Homo sapiens, UniProt P08913); assay: CODA-RET Gαi1 activation, α2AR-α2AR homomer; format: cell-based; conditions: for Emax: Gαi1, Table 2
T1 sequence (P08913 1-465) 1: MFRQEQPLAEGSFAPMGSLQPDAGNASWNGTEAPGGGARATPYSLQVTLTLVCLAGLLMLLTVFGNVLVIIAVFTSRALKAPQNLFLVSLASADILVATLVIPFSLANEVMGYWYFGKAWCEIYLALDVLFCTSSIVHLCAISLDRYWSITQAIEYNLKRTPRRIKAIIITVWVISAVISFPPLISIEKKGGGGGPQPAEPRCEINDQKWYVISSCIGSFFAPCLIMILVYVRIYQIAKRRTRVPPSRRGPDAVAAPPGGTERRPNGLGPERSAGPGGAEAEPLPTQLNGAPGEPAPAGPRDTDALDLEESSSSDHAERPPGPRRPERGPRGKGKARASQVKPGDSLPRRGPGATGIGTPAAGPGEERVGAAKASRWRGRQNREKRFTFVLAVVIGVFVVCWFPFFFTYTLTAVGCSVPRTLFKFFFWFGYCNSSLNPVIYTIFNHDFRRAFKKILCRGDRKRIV
T1 sequence (P08913 1-465) 2: T1 sequence (P08913 1-465) 1

α2AR-D4.4R [2] = biological target: T2, α2AR-D4.4R (Homo sapiens, UniProt P08913+P21917); assay: CODA-RET Gαi1 activation, α2AR-D4.4R heteromer; format: cell-based; conditions: for Emax: Gαi1, Table 2
T2 sequence (P08913 1-465): T1 sequence (P08913 1-465) 1
T2 sequence (P21917 1-419): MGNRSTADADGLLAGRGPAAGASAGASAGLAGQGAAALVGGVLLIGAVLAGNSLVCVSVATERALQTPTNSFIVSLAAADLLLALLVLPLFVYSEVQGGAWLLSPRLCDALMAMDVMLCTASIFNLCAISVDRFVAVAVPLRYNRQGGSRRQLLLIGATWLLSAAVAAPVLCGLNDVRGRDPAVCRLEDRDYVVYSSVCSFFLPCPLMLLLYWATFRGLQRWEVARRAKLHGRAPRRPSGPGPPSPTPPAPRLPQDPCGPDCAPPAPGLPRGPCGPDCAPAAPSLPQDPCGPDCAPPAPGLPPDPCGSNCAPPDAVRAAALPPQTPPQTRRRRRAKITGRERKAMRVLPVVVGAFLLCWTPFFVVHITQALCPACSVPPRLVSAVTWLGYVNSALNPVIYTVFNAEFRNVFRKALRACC

α2R = biological target: T3, α2R (Ovis aries, UniProt A0ACI6PY47); assay: Competitive inhibition of [3H]RX821002 binding in sheep cortex membranes; conditions: read-out: KDB1 for α2R; vs [3H]RX821002, sheep cortex membranes
T3 sequence (A0ACI6PY47 1-467): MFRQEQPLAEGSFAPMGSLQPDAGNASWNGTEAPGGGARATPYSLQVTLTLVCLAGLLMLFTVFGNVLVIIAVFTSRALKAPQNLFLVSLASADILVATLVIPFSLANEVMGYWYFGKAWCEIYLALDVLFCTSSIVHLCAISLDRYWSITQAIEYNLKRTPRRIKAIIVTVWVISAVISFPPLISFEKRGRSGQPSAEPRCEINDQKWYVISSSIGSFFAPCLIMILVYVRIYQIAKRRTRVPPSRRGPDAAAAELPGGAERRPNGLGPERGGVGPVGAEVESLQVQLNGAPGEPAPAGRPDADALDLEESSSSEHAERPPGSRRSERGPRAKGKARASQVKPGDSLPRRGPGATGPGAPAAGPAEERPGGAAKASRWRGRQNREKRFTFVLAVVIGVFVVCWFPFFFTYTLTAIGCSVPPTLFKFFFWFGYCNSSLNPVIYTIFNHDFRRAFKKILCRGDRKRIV

D4.4R [3] = biological target: T4, D4.4R (Homo sapiens, UniProt P21917); format: binding
T4 sequence (P21917 1-419): T2 sequence (P21917 1-419)

[4] = biological target: human α2A adrenoceptor fused to Renilla luciferase RLuc8 (α2AR-RLuc) (human) (UniProt P08913); assay: FRET or BRET
α2AR-D4.7R [5] = assay: CODA-RET Gαo1 activation, α2AR-D4.7R heteromer; format: cell-based, human; conditions: Fig. 4E
α2AR (with D4.7R) = biological target: T5, α2AR (with D4.7R) (Homo sapiens, UniProt P08913); assay: BRET α2AR-RLuc and Gαo1-mVenus, cells co-transfected with unfused D4.7R; format: cell-based; conditions: in the presence of D4.7R
T5 sequence (P08913 1-465): T1 sequence (P08913 1-465) 1

α2AR (with D4.4R) = biological target: T6, α2AR (with D4.4R) (Homo sapiens, UniProt P08913); assay: BRET α2AR-RLuc and Gαo1-mVenus, cells co-transfected with unfused D4.4R; format: cell-based; conditions: in the presence of D4.4R
T6 sequence (P08913 1-465): T1 sequence (P08913 1-465) 1

α2AR-D4.4R [6] = biological target: T2, α2AR-D4.4R; assay: CODA-RET Gαo1 activation, α2AR-D4.4R heteromer; format: cell-based; conditions: Fig. 4D
[7] = test system: cortical slices from hD4.7R mice; assay: ERK1/2 phosphorylation in cortical brain slices from knock-in hD4.7R mice; design: species or system mouse; conditions: agonists 1 μM
α2AR-D4.4R cells [8] = biological target: T7, α2AR-D4.4R cells (Homo sapiens, UniProt P08913+P21917); assay: Forskolin-induced cAMP accumulation, α2AR-D4.4R cells; format: cell-based; conditions: agonists 100 nM, forskolin 0.5 μM
T7 sequence (P08913 1-465): T1 sequence (P08913 1-465) 1
T7 sequence (P21917 1-419): T2 sequence (P21917 1-419)

D4.4R [9] = biological target: T4, D4.4R; assay: Receptor-G protein BRET, D4.4R fused to RLuc with Gαi1 or Gαo1; format: cell-based
α2AR-D4.4R cells [10] = biological target: T7, α2AR-D4.4R cells; assay: ERK1/2 phosphorylation, α2AR-D4.4R cells; format: cell-based; conditions: agonists 300 nM, 5 min
D4.7R = biological target: T8, D4.7R (Homo sapiens, UniProt P21917); assay: Receptor-G protein BRET, D4.7R fused to RLuc with Gαi1 or Gαo1; format: cell-based
T8 sequence (P21917 1-264 limits assumed): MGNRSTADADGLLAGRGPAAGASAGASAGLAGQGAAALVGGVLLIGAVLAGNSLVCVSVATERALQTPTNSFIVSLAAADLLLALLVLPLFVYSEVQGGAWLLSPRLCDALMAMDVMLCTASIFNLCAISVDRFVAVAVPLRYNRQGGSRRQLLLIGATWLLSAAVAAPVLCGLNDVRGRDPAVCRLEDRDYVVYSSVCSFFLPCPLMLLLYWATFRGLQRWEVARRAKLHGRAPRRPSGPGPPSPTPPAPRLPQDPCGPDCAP
T8 sequence (P21917 297-419 limits assumed): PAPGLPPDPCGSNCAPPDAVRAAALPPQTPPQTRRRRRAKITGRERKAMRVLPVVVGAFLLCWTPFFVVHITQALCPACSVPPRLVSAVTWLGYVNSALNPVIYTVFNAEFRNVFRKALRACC

D4.7R-D4.7R = biological target: T9, D4.7R-D4.7R (Homo sapiens, UniProt P21917); conditions: A-412997 1 μM; shift to the right of DA curve
T9 sequence (P21917 1-419): T2 sequence (P21917 1-419)

D4.4R-D4.4R = biological target: T10, D4.4R-D4.4R (Homo sapiens, UniProt P21917); assay: CODA-RET Gαi1 activation, D4.4R-D4.4R homomer; format: cell-based; conditions: A-412997 1 μM; shift to the right of DA curve
T10 sequence (P21917 1-419) 1: T2 sequence (P21917 1-419)
T10 sequence (P21917 1-419) 2: T2 sequence (P21917 1-419)

α2AR-D4.4R [11] = biological target: T2, α2AR-D4.4R; format: binding; conditions: 12°C; control or in presence of A-412997 (30 nM)
human α2AR = biological target: T11, human α2AR (Homo sapiens, UniProt P08913); assay: [3H]RX821002 saturation binding in HEK-293T cells transfected with human α2AR; conditions: read-out: KDA1, n=3
T11 sequence (P08913 1-465): T1 sequence (P08913 1-465) 1

α2AR-D4.7R [12] = format: binding, human; conditions: 12°C; control or in presence of A-412997 (30 nM)
[13] = cells pretreated with antagonist

Chain of α2AR-D4.7R (Homo sapiens, UniProt P08913+P21917) (P62873 2-340, one chain of several): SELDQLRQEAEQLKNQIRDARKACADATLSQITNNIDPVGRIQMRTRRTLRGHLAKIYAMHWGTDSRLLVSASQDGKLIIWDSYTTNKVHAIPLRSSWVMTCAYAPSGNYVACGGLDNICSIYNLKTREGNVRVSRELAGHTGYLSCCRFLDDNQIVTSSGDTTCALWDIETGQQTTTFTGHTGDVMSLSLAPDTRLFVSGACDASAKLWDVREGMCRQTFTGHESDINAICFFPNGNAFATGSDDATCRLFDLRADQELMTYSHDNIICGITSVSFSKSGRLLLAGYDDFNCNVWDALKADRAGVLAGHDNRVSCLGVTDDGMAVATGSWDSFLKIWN
Chain of α2AR-D4.7R (Homo sapiens, UniProt P08913+P21917) (P63096 2-354, one chain of several, further chain): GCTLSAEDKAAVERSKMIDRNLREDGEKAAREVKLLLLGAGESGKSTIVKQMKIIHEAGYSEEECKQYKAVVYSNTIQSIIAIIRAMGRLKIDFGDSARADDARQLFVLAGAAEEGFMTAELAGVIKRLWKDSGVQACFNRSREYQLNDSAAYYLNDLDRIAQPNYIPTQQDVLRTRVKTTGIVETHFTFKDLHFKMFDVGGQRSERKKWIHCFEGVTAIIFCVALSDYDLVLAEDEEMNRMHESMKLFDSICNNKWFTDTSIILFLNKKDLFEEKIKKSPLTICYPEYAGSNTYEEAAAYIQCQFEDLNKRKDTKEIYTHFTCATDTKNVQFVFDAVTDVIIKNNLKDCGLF
Chain of α2AR-D4.7R (Homo sapiens, UniProt P08913+P21917) (P59768 2-68, one chain of several, further chain): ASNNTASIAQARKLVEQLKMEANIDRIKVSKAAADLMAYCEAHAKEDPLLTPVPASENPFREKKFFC

## CCCN(CCc1cccs1)[C@H]1CCc2c(O)cccc2C1 [Rotigotine, Rotigotine hydrochloride]
α2AR-D4.7R [1]
  Emax: did not produce any response and 0 % of NE
α2AR-α2AR
  Emax: 0 % of NE
α2AR-α2AR; listed as rotigotine
  Emax: ineffective; also recorded: did not produce any response
α2AR-D4.4R [2]
  EC50: 7 ± 5 nM
  Emax: 13±2 % of NE
α2AR-D4.4R [2]; listed as rotigotine
  Emax: small Gαi1 protein activation

## Cc1cccc(C(=O)NCN2CCN(c3ccccc3C#N)CC2)c1 [PD168077]
α2R
  Kd: 80 ± 10 nM

## CCCN[C@H]1CCc2nc(N)sc2C1 [Pramipexole, Pramipexole dihydrochloride]
α2AR-D4.7R [1]
  Emax: 48±5 % of NE
α2AR-D4.4R [2]
  Emax: 28±3 % of NE

## COC1(C2=NCCN2)COc2ccccc2O1.Cl (stereo not shown) [RX821002, RX 821002 hydrochloride]
D4.4R [3]; any concentration up to 10 μM
  displacement of [3H]YM-09151-2: did not displace

## CC1c2ccccc2CN1CC1=NCCN1.O=C(O)/C=C\C(=O)O (stereo not shown) [BRL44408, BRL 44408 maleate]
α2AR-D4.7R [1]; [13]
  antagonist effect on NE- and DA-induced Gαi1 activation: significantly decreased the potency of NE and DA
α2AR-α2AR; [13]
  antagonist effect on NE- and DA-induced Gαi1 activation: significantly decreased the potency of NE and DA
α2AR-D4.4R [2]; [13]
  antagonist effect on NE- and DA-induced Gαi1 activation: significantly decreased the potency of NE and DA

## N=C(N)NC(=O)Cc1c(Cl)cccc1Cl [Guanfacine, Guanfacine hydrochloride]
α2AR-D4.7R [1]
  Emax: 20±3 % of NE
α2AR-α2AR
  Emax: 14±2 % of NE
α2AR-D4.4R [2]
  Emax: 0 % of NE
α2AR-D4.4R [2]; listed as guanfacine
  Emax: complete lack of efficacy

## CCCN(CCC)CCc1cccc2c1CC(=O)N2 [Ropinirole]
α2AR-α2AR
  Emax: ineffective
α2AR-D4.4R [2]
  EC50: 400 ± 200 nM

## Clc1cccc(Cl)c1N=C1NCCN1 [Clonidine, Clonidine hydrochloride]
α2AR-α2AR
  Emax: 18±2 % of NE
α2AR-D4.4R [2]
  Emax: 0 % of NE
α2AR-D4.4R [2]; listed as clonidine
  Emax: complete lack of efficacy

## human dopamine D4.7 receptor fused to YFP (D4.7R-YFP)
[4]
  BRET50: 60

## Cc1cccc([C@H](C)c2cnc[nH]2)c1C [Dexmedetomidine, Dexmedetomidine hydrochloride]
α2AR-D4.7R [5]
  Gαo1 activation: able to activate Gαo1
α2AR (with D4.7R)
  α2AR-mediated Gαo1 activation: promotes a significant α2AR-mediated Gαo1 activation
α2AR-α2AR
  Emax: 26±3 % of NE
D4.4R [3]
  Kd: 2000 to 6000 nM
α2AR (with D4.4R)
  α2AR-mediated Gαo1 activation: promotes a significant α2AR-mediated Gαo1 activation

## NC[C@H](O)c1ccc(O)c(O)c1 [NE, norepinephrine]
α2AR-D4.7R [1]; Gαi1 CODA-RET
  increase in NE potency on α2AR-D4.7R compared with α2AR-D4.4R: five-fold
α2AR-α2AR
  Emax: 100±3 % of NE

## Cc1cccc(NC(=O)CN2CCC(c3ccccn3)CC2)c1.Cl.Cl [A-412997, A-412997 dihydrochloride]
α2AR-D4.7R [1]
  Emax: 0 % of NE
α2AR-D4.4R [6]
  Gαo1 activation: promoted Gαo1 activation
[7]
  MAPK activation (ERK1/2 phosphorylation): significantly weaker than of dexmedetomidine
α2AR-D4.4R cells [8]
  inhibition of forskolin-induced cAMP accumulation: more effective than dexmedetomidine
D4.4R [9]; Gαi1-mVenus
  Gαi1 activation: did not promote
D4.4R [9]; Gαo1-mVenus
  Gαo1 activation: did promote significant Gαo1 activation
α2AR-D4.4R cells [10]
  ERK1/2 phosphorylation: more effective in α2AR-D4.4R cells than in α2AR-D4.7R cells
α2R
  Kd: 1400 nM
D4.7R; Gαi1-mVenus
  Gαi1 activation: did not promote
D4.7R; Gαo1-mVenus
  Gαo1 activation: did promote significant Gαo1 activation
D4.4R [3]; read-out: KDB1, vs [3H]YM-09151-2, HEK-293T co-expressing α2AR and D4.4R, n=3
  Kd: 1.1 ± 0.1 nM
D4.7R-D4.7R
  effect on DA-mediated Gi protein activation: competitive antagonist of DA
D4.4R-D4.4R
  effect on DA-mediated Gi protein activation: competitive antagonist of DA
α2AR-D4.4R [11]
  koff1 of [3H]RX821002: 0.25±0.07 ^* min^−1
  koff2 of [3H]RX821002: 0.036±0.007 ^* min^−1

## COC1(C2=NCCN2)COc2ccccc2O1 (stereo not shown) [[^3H]RX821002]
Human α2AR
  Kd: 0.62 ± 0.05 nM
α2AR-D4.7R [12]
  RT (residence time) of [3H]RX821002: 17 min
  koff of [3H]RX821002: 0.000967 ± 3.3e-05 s⁻¹
α2AR-D4.4R [11]
  RT1 (residence time) of [3H]RX821002: 7 min
  RT2 (residence time) of [3H]RX821002: 50 min
  koff1 of [3H]RX821002: 0.14 ± 0.03 min⁻¹
  koff2 of [3H]RX821002: 0.020 ± 0.004 min⁻¹
